The test deals with T1, RpFNR (R. palustris TrxR-type FNR) (Rhodopseudomonas palustris, UniProt Q6N2U4).
T1 construct: gene RPA3954; domains span residues 2-344
As to the kind of experiment: steady-state spectrophotometric NADPH:juglone reductase inhibition. Type of test: biochemical. As to conditions: read-out: Kis.

Each structure is given as a SMILES string.

T1 sequence (Q6N2U4 whole entry, the tested form may be a part): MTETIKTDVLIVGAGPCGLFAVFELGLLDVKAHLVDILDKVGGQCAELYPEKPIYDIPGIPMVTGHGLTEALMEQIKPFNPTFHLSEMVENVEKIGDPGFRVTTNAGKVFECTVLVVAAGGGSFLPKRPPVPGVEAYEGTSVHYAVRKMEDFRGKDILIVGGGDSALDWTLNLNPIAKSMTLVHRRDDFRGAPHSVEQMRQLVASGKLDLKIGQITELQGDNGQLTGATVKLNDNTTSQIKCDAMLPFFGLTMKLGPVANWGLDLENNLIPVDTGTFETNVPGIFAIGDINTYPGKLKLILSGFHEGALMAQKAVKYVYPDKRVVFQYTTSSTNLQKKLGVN

For `NC(=O)c1ccc[n+]([C@@H]2O[C@H](COP(=O)(O)OP(=O)(O)OC[C@H]3O[C@@H](n4cnc5c(N)ncnc54)[C@H](OP(=O)(O)O)[C@@H]3O)[C@@H](O)[C@H]2O)c1` [NADP^+], the Ki turned out to be 150 ± 10 µM.
